Source: patent US12404243B2, “Inhibitors of the Wnt/beta-catenin pathway” (The Regents of the University of California, priority 2018, dated 2025)
“Also recorded” adds a separate entry of the source.

Legend:
[1] = system: Wnt/β-catenin-mediated transcription; test: TCF-luciferase activity assay in 293T/Top/β-cat* cells; type: cell-based; settings: summary of FIGS. 5A, B (293T/Top cells + LiCl) and 6A-C (293T/Top/β-cat* cells)
Protocol: 293T cells were maintained in DMEM medium containing 10% FBS and antibiotics (penicillin and streptomycin) at 37° C. in 5% CO2. Cells were stably infected with lentiviruses expressing the TopFlash reporter (293T/Top cells). The β-catenin mutant (β-cat*, the constitutively active mutant) construct was prepared using the retroviral expression vector by standard PCR. For viral transduction, retrovirus was obtained by co-trasfection of pQCXIP-β-cat* with packaging plasmids into 293T cells following the manufacturer's instructions. 293T/Top stable cells were seeded in 10 cm dish and incubated overnight. The next day cells were treated with retroviral particles. After 12 hours, the medium was replaced with fresh medium. 2 days post virus infection, the cells were selected with puromycin for 5 days to generate the 293T/Top/β-cat* stable cell line.
293 T/Top/β-cat* cells were plated at 40%-50% confluences in 12-well plate for 8 hours and then treated with Wnt inhibitors overnight. The luciferase activity of total cell lysates was measured using Luciferase Assay System (Promega). The related TCF-luciferase activity was normalized against the protein concentration of each cell lysate sample.

SW480 tumor xenografts = test: Mouse xenografts of SW480 cells; type: in vivo, nude mice; settings: for tumor volume: day 12 to day 21 (FIG. 9A); for tumor growth: mouse xenograft studies of human colon cancer, summary of FIGS. 7A-D, 8A-C, 9A-C
Protocol: 5×10^5 of SW480 cells were injected subcutaneously into the flank area of 6-8-week-old nude mice. Tumor volume was measured by using an electronic caliper and calculated with the formula length×width^2×0.5, every 2 days. 12 days after inoculation, tumor bearing mice were administered Wnt inhibitors (dissolved in 10% DMSO+20% Cremophor EL+70% normal saline) via intraperitoneal injection for 5 days per week for 10 days at 10 mg/kg. Animal body weights were measured before drug treatments and at the end of the experiments. At the end of the experiments, animals were euthanized with carbon dioxide, followed by cervical dislocation. The tumors were dissected and weighed on the digital balance. We housed mice in pathogen-free facilities under 12-h light and 12-h dark cycle. The animal protocol and experimental procedures were approved by the Division of Laboratory Animal Medicine of UCLA and were in accordance with the US National Institute of Health guidelines.

[2] = SW480 xenografts, 10 mg/kg, day 12 to 22 (FIG. 7A)
[3] = SW480 xenografts, 10 mg/kg, day 12 to 22 (FIG. 7B)
[4] = SW480 xenografts, 10 mg/kg, day 12 to 22 (FIG. 7C)
[5] = SW480 xenografts, 10 mg/kg, day 12 to 22 (FIG. 16A)
[6] = SW480 xenografts, 10 mg/kg, day 12 to 22 (FIG. 16B)
[7] = SW480 xenografts, 10 mg/kg, day 12 to 22 (FIG. 16C)
[8] = SW480 xenografts, 10 mg/kg, day 12 to day 20 (FIG. 8B)
[9] = SW480 xenografts, 10 mg/kg, day 12 to day 21 (FIG. 9B)
[10] = SW480 xenografts, 10 mg/kg, day 12 to day 21 (FIG. 9C)

**Q.** For CN(C)CCC(=O)N1C/C(=C\c2cc(Cl)cc(Cl)c2)C(=O)/C(=C/c2cc(Cl)cc(Cl)c2)C1 [JC028, 3,5-Bis((E)-3,5-dichlorobenzylidene)-1-(3-(dimethylamino)propanoyl)piperidin-4-one], which Wnt/β-catenin-mediated transcription [1] is on record?
**A.** significantly inhibited

**Q.** For O=C1/C(=C/c2ccc(F)c(F)c2)CN(C(=O)CCC(=O)N2CCCC2)C/C1=C\c1ccc(F)c(F)c1 [JC072, 1-(3,5-Bis((E)-3,4-difluorobenzylidene)-4-oxopiperidin-1-yl)-4-(pyrrolidin-1-yl)butane-1,4-dione], which Wnt/β-catenin-mediated transcription [1] is on record?
**A.** significantly inhibited

**Q.** CN(C)CCC(=O)N1C/C(=C\c2ccc(C(F)(F)F)cc2)C(=O)/C(=C/c2ccc(C(F)(F)F)cc2)C1 [JC022, 1-(3-(Dimethylamino)propanoyl)-3,5-bis((E)-4-(trifluoromethyl)benzylidene)piperidin-4-one] was tested. Which Wnt/β-catenin-mediated transcription [1] did it give?
**A.** significantly inhibited

**Q.** Which results are given for CCN(CC)CCC(=O)N1C/C(=C\c2ccc(F)c(F)c2)C(=O)/C(=C/c2ccc(F)c(F)c2)C1 [JC049, 1-(3-(Diethylamino)propanoyl)-3,5-bis((E)-3,4-difluorobenzylidene)piperidin-4-one]?
**A.** tumor volumes (SW480 tumor xenografts; [2]): significantly reduced tumor volumes; tumor sizes at the end of treatment (SW480 tumor xenografts; [3]): significantly reduced the size of tumors recovered; tumor weights at the end of treatment (SW480 tumor xenografts; [4]): significantly reduced the weight of tumors recovered; actual tumor sizes at the end of treatment (SW480 tumor xenografts; [5]): reduced the size of tumors recovered; tumor weights at the end of treatment (SW480 tumor xenografts; [6]): significantly reduced the weight of tumors recovered; tumor volumes (SW480 tumor xenografts; [7]): significantly reduced tumor volumes; tumor volumes (SW480 tumor xenografts; SW480 xenografts, 10 mg/kg, day 12 to day 20 (FIG. 8A)): significantly reduced tumor volumes; actual tumor sizes at the end of treatment (SW480 tumor xenografts; [8]): reduced the size of tumors recovered; actual tumor weights at the end of treatment (SW480 tumor xenografts; SW480 xenografts, 10 mg/kg, day 12 to day 20 (FIG. 8C)): significantly reduced the weight of tumors recovered; tumor volume (SW480 tumor xenografts; SW480 xenografts, 10 mg/kg): significantly reduce tumor volume; tumor sizes at the end of treatment (SW480 tumor xenografts; [9]): significantly reduced the size of the tumors recovered; tumor weights at the end of treatment (SW480 tumor xenografts; [10]): significantly reduce the weight of tumors recovered; tumor growth (SW480 tumor xenografts): significantly inhibited the tumor growth; also recorded: showed the strongest inhibition; Wnt/β-catenin-mediated transcription [1]: significantly inhibited

**Q.** For CN(C)CCC(=O)N1C/C(=C\c2cccc(C(F)(F)F)c2)C(=O)/C(=C/c2cccc(C(F)(F)F)c2)C1 [JC018, 1-(3-(Dimethylamino)propanoyl)-3,5-bis((E)-3-(trifluoromethyl)benzylidene)piperidin-4-one], which Wnt/β-catenin-mediated transcription [1] is on record?
**A.** significantly inhibited

**Q.** How did the Wnt/β-catenin-mediated transcription [1] turn out when O=C1/C(=C/c2ccc(F)c(F)c2)CN(C(=O)CCN2CCCCC2)C/C1=C\c1ccc(F)c(F)c1 [JC048, 3,5-Bis((E)-3,4-difluorobenzylidene)-1-(3-(piperidin-1-yl)propanoyl)piperidin-4-one] was run?
**A.** significantly inhibited

**Q.** For CN(C)CCC(=O)NC1C/C(=C\c2ccc(F)c(F)c2)C(=O)/C(=C/c2ccc(F)c(F)c2)C1 (centres unmarked) [JC070, N-(3,5-Bis((E)-3,4-difluorobenzylidene)-4-oxocyclohexyl)-3-(dimethylamino)propanamide], which tumor volumes (SW480 tumor xenografts; [2]) is on record?
**A.** significantly reduced tumor volumes

**Q.** And the “tumor sizes at the end of treatment” value (SW480 tumor xenografts; [3])?
**A.** significantly reduced the size of tumors recovered

**Q.** What about the “tumor weights at the end of treatment” value (SW480 tumor xenografts; [4]) of the same molecule?
**A.** significantly reduced the weight of tumors recovered

**Q.** What about the tumor growth (SW480 tumor xenografts) of the same molecule?
**A.** showed some inhibition, but did not reach significance

**Q.** What about the Wnt/β-catenin-mediated transcription [1] of the same molecule?
**A.** significantly inhibited

**Q.** For CN(C)CCC(=O)N1C/C(=C\c2ccc(Cl)c(Cl)c2)C(=O)/C(=C/c2ccc(Cl)c(Cl)c2)C1 [JC032, 3,5-Bis((E)-3,4-dichlorobenzylidene)-1-(3-(dimethylamino)propanoyl)piperidin-4-one], which Wnt/β-catenin-mediated transcription [1] is on record?
**A.** significantly inhibited

**Q.** For CN(C)CCC(=O)N1C/C(=C\c2ccc(F)c(F)c2)C(=O)/C(=C/c2ccc(F)c(F)c2)C1 [JC026, 3,5-Bis((E)-3,4-difluorobenzylidene)-1-(3-(dimethylamino)propanoyl)piperidin-4-one], which tumor volumes (SW480 tumor xenografts; [2]) is on record?
**A.** significantly reduced tumor volumes

**Q.** And the “tumor sizes at the end of treatment” value (SW480 tumor xenografts; [3])?
**A.** significantly reduced the size of tumors recovered

**Q.** And the “tumor weights at the end of treatment” value (SW480 tumor xenografts; [4])?
**A.** significantly reduced the weight of tumors recovered

**Q.** What about the tumor growth (SW480 tumor xenografts) of the same molecule?
**A.** significantly inhibited the tumor growth

**Q.** What about the Wnt/β-catenin-mediated transcription [1] of the same molecule?
**A.** significantly inhibited

**Q.** Which tumor volume (SW480 tumor xenografts; SW480 xenografts, 10 mg/kg) does the source give for O=C1/C(=C/c2ccc(F)c(F)c2)CN(C(=O)c2ccc(OCCN3CCCCC3)cc2)C/C1=C\c1ccc(F)c(F)c1 [JC082, 3,5-Bis((E)-3,4-difluorobenzylidene)-1-(4-(2-(piperidin-1-yl)ethoxy)benzoyl)piperidin-4-one] here?
**A.** significantly reduce tumor volume

**Q.** What about the “tumor sizes at the end of treatment” value (SW480 tumor xenografts; [9]) of the same molecule?
**A.** significantly reduced the size of the tumors recovered

**Q.** What about the “tumor weights at the end of treatment” value (SW480 tumor xenografts; [10]) of the same molecule?
**A.** significantly reduce the weight of tumors recovered

**Q.** What about the tumor growth (SW480 tumor xenografts) of the same molecule?
**A.** significantly inhibited the tumor growth

**Q.** What does the source list for CN(C)CCOc1ccc(C(=O)NC2C/C(=C\c3ccc(F)c(F)c3)C(=O)/C(=C/c3ccc(F)c(F)c3)C2)cc1 (centres unmarked) [JC081, N-(3,5-Bis((E)-3,4-difluorobenzylidene)-4-oxocyclohexyl)-4-(2-(dimethylamino)ethoxy)benzamide]?
**A.** tumor volume (SW480 tumor xenografts; SW480 xenografts, 10 mg/kg): significantly reduce tumor volume; tumor sizes at the end of treatment (SW480 tumor xenografts; [9]): significantly reduced the size of the tumors recovered; tumor weights at the end of treatment (SW480 tumor xenografts; [10]): significantly reduce the weight of tumors recovered; tumor growth (SW480 tumor xenografts): significantly inhibited the tumor growth; Wnt/β-catenin-mediated transcription [1]: significantly inhibited

**Q.** With CN(C)CCC(=O)N1C/C(=C\c2ccccn2)C(=O)/C(=C/c2ccccn2)C1 [JC021, (3E,5E)-1-(3-(Dimethylamino)propanoyl)-3,5-bis(pyridin-2-ylmethylene)piperidin-4-one] as the molecule, how does the Wnt/β-catenin-mediated transcription [1] read?
**A.** significantly inhibited

**Q.** With CCN(CC)CCS(=O)(=O)N1C/C(=C\c2ccc(F)c(F)c2)C(=O)/C(=C/c2ccc(F)c(F)c2)C1 [JC098, 1-((2-(Diethylamino)ethyl)sulfonyl)-3,5-bis((E)-3,4-difluorobenzylidene)piperidin-4-one] as the molecule, how does the “actual tumor sizes at the end of treatment” value (“actual tumor sizes at the end” below) (SW480 tumor xenografts; [8]) read?
**A.** reduced the size of tumors recovered

**Q.** How did the tumor volumes (SW480 tumor xenografts; [2]) turn out when CN(C)CCS(=O)(=O)N1C/C(=C\c2ccc(F)c(F)c2)C(=O)/C(=C/c2ccc(F)c(F)c2)C1 [JC060, 3,5-Bis((E)-3,4-difluorobenzylidene)-1-((2-(dimethylamino)ethyl)sulfonyl)piperidin-4-one] was run?
**A.** significantly reduced tumor volumes

**Q.** What about the “tumor sizes at the end of treatment” value (SW480 tumor xenografts; [3]) of the same molecule?
**A.** significantly reduced the size of tumors recovered

**Q.** What about the “tumor weights at the end of treatment” value (SW480 tumor xenografts; [4]) of the same molecule?
**A.** significantly reduced the weight of tumors recovered

**Q.** What about the tumor volume (SW480 tumor xenografts; SW480 xenografts, 10 mg/kg) of the same molecule?
**A.** significantly reduce tumor volume

**Q.** What about the “tumor sizes at the end of treatment” value (SW480 tumor xenografts; [9]) of the same molecule?
**A.** significantly reduced the size of the tumors recovered

**Q.** And the “tumor weights at the end of treatment” value (SW480 tumor xenografts; [10])?
**A.** significantly reduce the weight of tumors recovered

**Q.** What about the tumor growth (SW480 tumor xenografts) of the same molecule?
**A.** significantly inhibited the tumor growth

**Q.** And the Wnt/β-catenin-mediated transcription [1]?
**A.** significantly inhibited

**Q.** With CN(C)CCOc1ccc(NC(=O)C2C/C(=C\c3cc(Cl)cc(Cl)c3)C(=O)/C(=C/c3cc(Cl)cc(Cl)c3)C2)cc1 (centres unmarked) [JC138, 3,5-Bis((E)-3,5-dichlorobenzylidene)-N-(4-(2-(dimethylamino)ethoxy)phenyl)-4-oxocyclohexane-1-carboxamide] as the molecule, how does the “actual tumor sizes at the end” value (SW480 tumor xenografts; [5]) read?
**A.** reduced the size of tumors recovered

**Q.** What about the “tumor weights at the end of treatment” value (SW480 tumor xenografts; [6]) of the same molecule?
**A.** significantly reduced the weight of tumors recovered

**Q.** And the tumor volumes (SW480 tumor xenografts; [7])?
**A.** significantly reduced tumor volumes

**Q.** With CN(C)CCNC(=O)C1C/C(=C\c2cc(Cl)cc(Cl)c2)C(=O)/C(=C/c2cc(Cl)cc(Cl)c2)C1 (centres unmarked) [JC137, 3,5-Bis((E)-3,5-dichlorobenzylidene)-N-(2-(dimethylamino)ethyl)-4-oxocyclohexane-1-carboxamide] as the molecule, how does the “actual tumor sizes at the end” value (SW480 tumor xenografts; [5]) read?
**A.** reduced the size of tumors recovered
